Experiments:
Format in all cases: binding
[1] = biological target: T1, kinases (KINOMEscan panel) (Homo sapiens, UniProt O75385); conditions: NEW KINOMEscan
T1 sequence (O75385 1-1050): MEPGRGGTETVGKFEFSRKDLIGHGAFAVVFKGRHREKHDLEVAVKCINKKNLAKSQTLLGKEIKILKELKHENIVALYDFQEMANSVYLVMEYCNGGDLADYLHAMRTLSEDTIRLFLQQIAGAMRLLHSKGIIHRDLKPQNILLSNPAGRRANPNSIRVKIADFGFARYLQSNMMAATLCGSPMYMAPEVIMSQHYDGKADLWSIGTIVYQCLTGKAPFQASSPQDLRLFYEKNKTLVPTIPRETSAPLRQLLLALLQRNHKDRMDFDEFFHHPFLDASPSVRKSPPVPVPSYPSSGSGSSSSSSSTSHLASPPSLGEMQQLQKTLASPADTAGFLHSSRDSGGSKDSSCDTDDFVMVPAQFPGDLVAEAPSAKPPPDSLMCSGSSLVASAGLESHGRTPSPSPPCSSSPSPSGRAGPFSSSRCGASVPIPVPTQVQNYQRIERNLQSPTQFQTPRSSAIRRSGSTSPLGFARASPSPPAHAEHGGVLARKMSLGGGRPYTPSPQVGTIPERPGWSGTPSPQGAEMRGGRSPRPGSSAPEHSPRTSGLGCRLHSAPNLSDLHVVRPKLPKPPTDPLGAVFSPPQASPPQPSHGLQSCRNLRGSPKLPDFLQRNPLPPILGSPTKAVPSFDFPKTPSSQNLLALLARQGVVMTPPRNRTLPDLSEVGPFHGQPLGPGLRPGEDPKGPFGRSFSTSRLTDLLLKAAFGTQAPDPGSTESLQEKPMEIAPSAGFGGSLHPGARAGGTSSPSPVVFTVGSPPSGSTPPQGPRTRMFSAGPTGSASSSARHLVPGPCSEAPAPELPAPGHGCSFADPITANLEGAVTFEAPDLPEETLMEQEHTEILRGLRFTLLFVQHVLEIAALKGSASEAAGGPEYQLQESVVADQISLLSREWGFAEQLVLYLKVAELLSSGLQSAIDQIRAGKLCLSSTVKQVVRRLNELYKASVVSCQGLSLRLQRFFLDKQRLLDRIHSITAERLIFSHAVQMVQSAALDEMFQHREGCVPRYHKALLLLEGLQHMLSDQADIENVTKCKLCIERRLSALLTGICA

[2] = biological target: kinases (KINOMEscan panel) (Homo sapiens, UniProt P08631); conditions: kinase HCK; NEW KINOMEscan
[3] = biological target: kinases (KINOMEscan panel) (Homo sapiens, UniProt P15056); conditions: BRAF; NEW KINOMEscan
[4] = biological target: kinases (KINOMEscan panel) (Homo sapiens, UniProt P42336, H1047Y); conditions: kinase PIK3CA(H1047Y); NEW KINOMEscan
[5] = biological target: kinases (KINOMEscan panel) (Homo sapiens, UniProt P50613); conditions: kinase CDK7; NEW KINOMEscan
[6] = biological target: kinases (KINOMEscan panel) (Homo sapiens, UniProt Q00536); conditions: kinase CDK16; NEW KINOMEscan
[7] = biological target: T2, kinases (KINOMEscan panel) (Homo sapiens, UniProt Q6ZN16); conditions: NEW KINOMEscan
T2 sequence (Q6ZN16 1-1313): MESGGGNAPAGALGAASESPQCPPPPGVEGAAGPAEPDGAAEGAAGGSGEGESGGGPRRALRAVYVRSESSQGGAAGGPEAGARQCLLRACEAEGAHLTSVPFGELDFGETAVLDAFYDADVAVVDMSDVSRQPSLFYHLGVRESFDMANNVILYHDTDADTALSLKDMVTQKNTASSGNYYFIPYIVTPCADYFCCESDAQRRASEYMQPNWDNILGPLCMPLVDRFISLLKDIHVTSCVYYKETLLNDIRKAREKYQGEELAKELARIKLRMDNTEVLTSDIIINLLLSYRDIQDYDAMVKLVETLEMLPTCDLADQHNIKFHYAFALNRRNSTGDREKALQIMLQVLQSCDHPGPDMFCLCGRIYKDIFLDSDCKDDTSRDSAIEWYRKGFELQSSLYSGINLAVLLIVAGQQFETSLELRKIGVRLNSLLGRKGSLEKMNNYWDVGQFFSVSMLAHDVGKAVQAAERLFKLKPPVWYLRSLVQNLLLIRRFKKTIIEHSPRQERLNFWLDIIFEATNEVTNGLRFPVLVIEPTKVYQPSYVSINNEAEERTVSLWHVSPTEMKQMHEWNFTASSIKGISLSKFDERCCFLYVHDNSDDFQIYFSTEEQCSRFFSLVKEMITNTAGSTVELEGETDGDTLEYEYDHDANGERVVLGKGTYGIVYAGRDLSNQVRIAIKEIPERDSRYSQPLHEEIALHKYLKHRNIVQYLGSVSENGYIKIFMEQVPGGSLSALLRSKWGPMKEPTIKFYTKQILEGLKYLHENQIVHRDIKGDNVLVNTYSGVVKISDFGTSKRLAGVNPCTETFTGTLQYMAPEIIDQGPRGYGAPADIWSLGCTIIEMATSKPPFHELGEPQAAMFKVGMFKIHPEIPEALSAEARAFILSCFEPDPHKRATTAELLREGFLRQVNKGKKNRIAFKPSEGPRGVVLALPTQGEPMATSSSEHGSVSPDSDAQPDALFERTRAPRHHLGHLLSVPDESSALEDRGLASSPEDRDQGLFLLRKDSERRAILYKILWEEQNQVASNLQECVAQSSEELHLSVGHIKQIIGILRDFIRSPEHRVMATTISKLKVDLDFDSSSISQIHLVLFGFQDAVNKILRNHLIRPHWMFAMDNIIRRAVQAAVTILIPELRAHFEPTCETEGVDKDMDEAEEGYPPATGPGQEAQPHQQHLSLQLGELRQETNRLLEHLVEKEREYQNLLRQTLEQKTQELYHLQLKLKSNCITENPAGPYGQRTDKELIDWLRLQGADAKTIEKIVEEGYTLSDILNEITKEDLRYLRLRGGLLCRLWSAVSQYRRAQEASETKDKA

[8] = biological target: kinases (KINOMEscan panel) (Homo sapiens, UniProt Q8NI60); conditions: COQ8A; NEW KINOMEscan
[9] = biological target: kinases (KINOMEscan panel) (Homo sapiens, UniProt Q9UEW8); conditions: NEW KINOMEscan
[10] = biological target: kinases (KINOMEscan panel) (Homo sapiens, UniProt Q9Y6R4); conditions: MAP3K4; NEW KINOMEscan
Sequence of kinases (KINOMEscan panel) (Homo sapiens, UniProt Q9Y6R4) (Q9Y6R4 whole entry): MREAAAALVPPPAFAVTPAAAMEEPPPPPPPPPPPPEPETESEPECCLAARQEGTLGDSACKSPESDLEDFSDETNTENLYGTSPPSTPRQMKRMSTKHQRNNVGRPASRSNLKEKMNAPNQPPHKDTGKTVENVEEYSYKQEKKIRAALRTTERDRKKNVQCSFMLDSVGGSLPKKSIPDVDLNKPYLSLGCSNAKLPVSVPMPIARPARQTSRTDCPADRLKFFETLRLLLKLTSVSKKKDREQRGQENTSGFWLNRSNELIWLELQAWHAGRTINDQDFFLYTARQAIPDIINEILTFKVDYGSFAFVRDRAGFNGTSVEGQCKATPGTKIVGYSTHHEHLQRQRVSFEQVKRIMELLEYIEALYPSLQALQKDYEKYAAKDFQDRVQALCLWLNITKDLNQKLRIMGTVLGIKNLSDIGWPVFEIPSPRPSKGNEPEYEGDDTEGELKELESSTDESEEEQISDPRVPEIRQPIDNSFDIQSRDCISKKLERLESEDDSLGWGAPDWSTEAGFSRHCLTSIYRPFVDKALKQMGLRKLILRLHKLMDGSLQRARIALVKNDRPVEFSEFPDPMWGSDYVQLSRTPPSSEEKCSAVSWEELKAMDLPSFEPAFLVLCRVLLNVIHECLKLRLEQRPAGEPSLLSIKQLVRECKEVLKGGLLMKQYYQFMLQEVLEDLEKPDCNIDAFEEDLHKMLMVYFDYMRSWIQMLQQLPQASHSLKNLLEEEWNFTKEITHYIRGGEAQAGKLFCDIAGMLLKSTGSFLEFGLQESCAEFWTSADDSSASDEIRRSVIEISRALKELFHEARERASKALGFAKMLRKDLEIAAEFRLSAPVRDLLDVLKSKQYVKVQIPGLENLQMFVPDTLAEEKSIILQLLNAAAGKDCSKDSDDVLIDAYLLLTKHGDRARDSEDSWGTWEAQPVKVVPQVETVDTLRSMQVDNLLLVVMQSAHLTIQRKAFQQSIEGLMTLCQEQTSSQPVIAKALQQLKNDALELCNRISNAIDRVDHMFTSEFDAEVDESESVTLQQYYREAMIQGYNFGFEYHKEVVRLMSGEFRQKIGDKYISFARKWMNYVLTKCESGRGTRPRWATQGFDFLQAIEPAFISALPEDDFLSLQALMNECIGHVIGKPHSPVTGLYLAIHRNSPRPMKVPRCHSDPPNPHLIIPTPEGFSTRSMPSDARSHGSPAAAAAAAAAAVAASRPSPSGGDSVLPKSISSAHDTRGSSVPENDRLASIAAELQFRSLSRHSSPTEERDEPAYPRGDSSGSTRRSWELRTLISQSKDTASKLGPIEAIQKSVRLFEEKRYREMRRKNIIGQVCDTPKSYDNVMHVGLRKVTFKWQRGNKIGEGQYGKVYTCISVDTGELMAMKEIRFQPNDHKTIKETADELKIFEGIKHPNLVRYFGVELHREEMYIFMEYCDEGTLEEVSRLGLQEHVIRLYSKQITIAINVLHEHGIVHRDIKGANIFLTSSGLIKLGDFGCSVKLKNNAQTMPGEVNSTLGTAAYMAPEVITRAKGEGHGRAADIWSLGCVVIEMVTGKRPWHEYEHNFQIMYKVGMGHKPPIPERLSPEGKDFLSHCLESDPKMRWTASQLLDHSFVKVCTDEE

Sequence of kinases (KINOMEscan panel) (Homo sapiens, UniProt P08631) (P08631 whole entry): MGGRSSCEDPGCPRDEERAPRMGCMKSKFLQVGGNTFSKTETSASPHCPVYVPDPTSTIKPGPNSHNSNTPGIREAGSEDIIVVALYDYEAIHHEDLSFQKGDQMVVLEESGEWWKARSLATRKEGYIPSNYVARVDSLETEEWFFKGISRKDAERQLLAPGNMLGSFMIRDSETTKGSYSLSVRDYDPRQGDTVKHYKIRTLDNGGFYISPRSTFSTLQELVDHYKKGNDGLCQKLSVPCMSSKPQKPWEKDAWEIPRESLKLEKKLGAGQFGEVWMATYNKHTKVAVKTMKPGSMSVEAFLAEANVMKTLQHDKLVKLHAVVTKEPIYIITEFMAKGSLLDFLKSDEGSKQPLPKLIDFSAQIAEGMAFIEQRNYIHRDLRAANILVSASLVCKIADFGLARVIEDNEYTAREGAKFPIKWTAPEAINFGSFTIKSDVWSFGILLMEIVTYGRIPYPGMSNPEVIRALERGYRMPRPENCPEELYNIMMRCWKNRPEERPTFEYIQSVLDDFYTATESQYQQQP
Sequence of kinases (KINOMEscan panel) (Homo sapiens, UniProt P50613) (P50613 whole entry): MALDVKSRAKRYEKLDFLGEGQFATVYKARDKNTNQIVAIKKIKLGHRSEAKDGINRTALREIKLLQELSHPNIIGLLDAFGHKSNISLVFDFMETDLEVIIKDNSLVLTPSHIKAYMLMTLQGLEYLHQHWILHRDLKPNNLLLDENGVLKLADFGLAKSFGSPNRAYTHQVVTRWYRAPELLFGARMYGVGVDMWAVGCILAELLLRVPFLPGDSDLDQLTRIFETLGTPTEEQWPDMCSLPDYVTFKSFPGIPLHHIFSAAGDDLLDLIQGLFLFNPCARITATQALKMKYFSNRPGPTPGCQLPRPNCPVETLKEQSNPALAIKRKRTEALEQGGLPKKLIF
Sequence of kinases (KINOMEscan panel) (Homo sapiens, UniProt Q00536) (Q00536 whole entry): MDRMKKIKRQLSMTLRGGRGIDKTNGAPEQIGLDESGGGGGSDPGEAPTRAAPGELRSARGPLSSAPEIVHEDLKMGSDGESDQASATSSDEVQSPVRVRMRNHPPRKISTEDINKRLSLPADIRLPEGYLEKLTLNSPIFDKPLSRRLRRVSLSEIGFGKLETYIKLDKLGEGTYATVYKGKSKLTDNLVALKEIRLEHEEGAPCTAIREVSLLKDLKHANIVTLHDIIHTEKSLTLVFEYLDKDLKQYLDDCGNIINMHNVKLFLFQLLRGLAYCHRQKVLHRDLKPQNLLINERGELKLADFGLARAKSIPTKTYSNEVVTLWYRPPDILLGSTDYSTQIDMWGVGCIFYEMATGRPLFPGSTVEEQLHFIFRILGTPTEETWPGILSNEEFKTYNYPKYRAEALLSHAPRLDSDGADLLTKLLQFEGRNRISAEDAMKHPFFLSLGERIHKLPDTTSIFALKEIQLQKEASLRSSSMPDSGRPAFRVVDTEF
Sequence of kinases (KINOMEscan panel) (Homo sapiens, UniProt P15056) (P15056 whole entry): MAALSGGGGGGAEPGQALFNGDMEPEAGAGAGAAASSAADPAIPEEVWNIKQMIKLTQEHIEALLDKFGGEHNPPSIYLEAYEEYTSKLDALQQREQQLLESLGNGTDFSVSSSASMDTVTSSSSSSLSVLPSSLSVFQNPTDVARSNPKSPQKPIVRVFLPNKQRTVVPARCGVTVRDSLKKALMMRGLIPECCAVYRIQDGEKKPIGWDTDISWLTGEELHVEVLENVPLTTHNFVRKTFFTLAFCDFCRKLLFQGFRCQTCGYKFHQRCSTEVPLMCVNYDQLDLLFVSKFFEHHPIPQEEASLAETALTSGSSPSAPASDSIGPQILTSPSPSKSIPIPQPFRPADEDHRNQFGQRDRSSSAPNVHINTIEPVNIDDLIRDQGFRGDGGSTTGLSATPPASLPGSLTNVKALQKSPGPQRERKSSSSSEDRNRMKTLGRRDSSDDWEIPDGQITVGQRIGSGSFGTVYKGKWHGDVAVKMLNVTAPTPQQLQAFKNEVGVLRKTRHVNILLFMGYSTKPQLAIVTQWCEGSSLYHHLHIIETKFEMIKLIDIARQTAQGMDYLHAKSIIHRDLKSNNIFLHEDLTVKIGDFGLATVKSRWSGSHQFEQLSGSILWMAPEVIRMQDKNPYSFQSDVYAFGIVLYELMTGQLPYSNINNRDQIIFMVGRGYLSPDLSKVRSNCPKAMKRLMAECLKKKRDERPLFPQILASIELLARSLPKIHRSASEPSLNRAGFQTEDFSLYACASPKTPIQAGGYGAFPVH
Sequence of kinases (KINOMEscan panel) (Homo sapiens, UniProt P42336, H1047Y) (P42336 whole entry H1047Y): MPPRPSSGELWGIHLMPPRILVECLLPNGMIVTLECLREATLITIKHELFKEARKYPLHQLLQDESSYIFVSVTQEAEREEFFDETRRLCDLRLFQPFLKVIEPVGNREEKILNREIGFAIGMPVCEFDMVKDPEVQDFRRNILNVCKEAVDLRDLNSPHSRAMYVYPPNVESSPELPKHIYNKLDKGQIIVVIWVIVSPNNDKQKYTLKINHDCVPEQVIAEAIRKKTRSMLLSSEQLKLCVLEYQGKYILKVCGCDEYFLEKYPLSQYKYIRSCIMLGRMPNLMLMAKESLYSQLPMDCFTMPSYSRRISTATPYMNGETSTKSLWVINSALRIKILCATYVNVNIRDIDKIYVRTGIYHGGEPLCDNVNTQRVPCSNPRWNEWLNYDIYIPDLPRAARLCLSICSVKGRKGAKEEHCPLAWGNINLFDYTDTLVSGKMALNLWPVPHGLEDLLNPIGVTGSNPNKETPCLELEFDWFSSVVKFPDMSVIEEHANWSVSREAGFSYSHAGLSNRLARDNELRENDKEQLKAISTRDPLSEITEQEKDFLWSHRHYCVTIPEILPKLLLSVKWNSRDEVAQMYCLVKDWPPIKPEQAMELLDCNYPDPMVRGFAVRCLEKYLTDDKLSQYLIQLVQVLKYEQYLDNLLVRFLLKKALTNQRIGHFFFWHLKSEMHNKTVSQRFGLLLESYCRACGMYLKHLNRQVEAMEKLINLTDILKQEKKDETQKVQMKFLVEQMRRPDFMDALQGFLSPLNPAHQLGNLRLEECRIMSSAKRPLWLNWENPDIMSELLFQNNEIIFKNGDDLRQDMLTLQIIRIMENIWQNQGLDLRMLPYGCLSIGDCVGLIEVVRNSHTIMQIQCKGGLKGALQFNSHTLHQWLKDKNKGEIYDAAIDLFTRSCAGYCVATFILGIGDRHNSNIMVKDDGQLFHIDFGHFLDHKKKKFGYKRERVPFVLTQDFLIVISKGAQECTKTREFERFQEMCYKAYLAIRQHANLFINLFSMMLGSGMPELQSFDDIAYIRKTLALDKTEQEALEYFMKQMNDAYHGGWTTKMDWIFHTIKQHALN

Row | Structure (SMILES) | KINOMEscan ULK1 [1] | KINOMEscan HCK [2] | KINOMEscan BRAF [3] | KINOMEscan PIK3CA(H1047Y) [4] | KINOMEscan CDK7 [5] | KINOMEscan CDK16 [6] | KINOMEscan MAP3K15 [7] | KINOMEscan COQ8A [8] | KINOMEscan STK39 [9] | KINOMEscan MAP3K4 [10]
1 | Cc1cccc(-c2nc(N(C)c3ccc4ncsc4c3)c3ccccc3n2)n1 [NK-161] | 18 | 16 | 0 | 4 | 7 | 0 | 21 | 1 | 0 | 0
2 | Cc1cccc(-c2nc(Nc3ccc4nn(C)cc4c3)c3ccccc3n2)n1 [NK167] | 8 | 14 | 0 | 0 | 0 | 0 | 21 | 5 | 11 | 3
